Our source for the T/C values is PubChem BioAssay AID272 (DTP/NCI, 2004).

Structures are written as SMILES. Several values for one entry are separate records, joined by “and”; a condition that tells them apart may be missing. Identical values can stand only once. Records with an inconclusive call do not appear.

The assay concerns Lewis lung carcinoma i.m., BDF1 mice, T/C %. Kind of assay: NCI In Vivo Anticancer Drug Screen. Data for tumor model Lewis Lung Carcinoma (intramuscular) in B6D2F1 (BDF1) mice. The essentials:
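Compound given to mice with transplantable tumours; survival or tumour size compared against the vehicle control group, reported as T divided by C.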

In the case of `O=P1(N(CCCl)CCCl)NCCCO1` (centres undefined), the T/C was 40 % of control (endpoint: mean tumor weight (est.), dose: 65.0 mg/kg/injection, schedule: Q01DX011 (ip), vehicle: saline, higher = larger tumour); 44 % of control (endpoint: mean tumor weight, dose: 65.0 mg/kg/injection, schedule: Q01DX001 (sc), vehicle: saline, higher = larger tumour); 58 % of control (endpoint: mean tumor weight, dose: 100.0 mg/kg/injection, schedule: Q01DX001 (ip), vehicle: saline, higher = larger tumour); 39 % of control (endpoint: mean tumor weight, dose: 108.0 mg/kg/injection, schedule: Q01DX001 (sc), vehicle: saline, higher = larger tumour); 13 % of control (endpoint: mean tumor weight, dose: 180.0 mg/kg/injection, schedule: Q01DX001 (ip), vehicle: saline, higher = larger tumour); 27 % of control (endpoint: mean tumor weight, dose: 180.0 mg/kg/injection, schedule: Q01DX001 (sc), vehicle: saline, higher = larger tumour). Besides, the T/C is 31 % of control (endpoint: mean tumor weight, dose: 300.0 mg/kg/injection, schedule: Q01DX001 (sc), vehicle: saline, higher = larger tumour); 106 % of control (endpoint: median survival time, dose: 6.25 mg/kg/injection, schedule: Q01DX009 (ip), vehicle: saline, higher = longer survival); 116 % of control (endpoint: median survival time, dose: 12.5 mg/kg/injection, schedule: Q01DX009 (ip), vehicle: saline, higher = longer survival); 109 % of control and 110 % of control (endpoint: median survival time, dose: 12.5 mg/kg/injection, schedule: Q03DX010 (ip), vehicle: saline, higher = longer survival); 100 % of control (endpoint: median survival time, dose: 19.0 mg/kg/injection, schedule: Q01DX007 (sc), vehicle: saline, higher = longer survival); 121 % of control (endpoint: median survival time, dose: 23.0 mg/kg/injection, schedule: Q08DX003 (sc), vehicle: saline, higher = longer survival). The T/C is, setting by setting: (endpoint: median survival time, dose: 25.0 mg/kg/injection, schedule: Q01DX009 (ip), vehicle: saline, higher = longer survival) 114 % of control; (endpoint: median survival time, dose: 39.0 mg/kg/injection, schedule: Q08DX003 (ip), vehicle: saline, higher = longer survival) 100 % of control and 105 % of control; (endpoint: median survival time, dose: 39.0 mg/kg/injection, schedule: Q08DX003 (sc), vehicle: saline, higher = longer survival) 184 % of control and 186 % of control; (endpoint: median survival time, dose: 50.0 mg/kg/injection, schedule: Q01DX001 (ip), vehicle: methylcellulose (MC), higher = longer survival) 104 % of control and 106 % of control; (endpoint: median survival time, dose: 50.0 mg/kg/injection, schedule: Q01DX009 (ip), vehicle: saline, higher = longer survival) 114 % of control; (endpoint: median survival time, dose: 52.0 mg/kg/injection, schedule: Q01DX007 (sc), vehicle: saline, higher = longer survival) 95 % of control and 105 % of control. The T/C is 161 % of control (endpoint: median survival time, dose: 65.0 mg/kg/injection, schedule: Q08DX003 (ip), vehicle: saline, higher = longer survival); 191 % of control and 192 % of control (endpoint: median survival time, dose: 65.0 mg/kg/injection, schedule: Q08DX003 (sc), vehicle: saline, higher = longer survival); 168 % of control (endpoint: median survival time, dose: 65.0 mg/kg/injection, schedule: Q14DX002 (ip), vehicle: saline, higher = longer survival); 78 % of control (endpoint: median survival time, dose: 86.0 mg/kg/injection, schedule: Q01DX007 (sc), vehicle: saline, higher = longer survival); 198 % of control and 235 % of control (endpoint: median survival time, dose: 100.0 mg/kg/injection, schedule: Q01DX001 (ip), vehicle: methylcellulose (MC), higher = longer survival); 159 % of control (endpoint: median survival time, dose: 100.0 mg/kg/injection, schedule: Q14DX002 (ip), vehicle: saline, higher = longer survival). Moreover, the T/C is 89 % of control (endpoint: median survival time, dose: 108.0 mg/kg/injection, schedule: Q08DX003 (ip), vehicle: saline, higher = longer survival); 173 % of control and 186 % of control (endpoint: median survival time, dose: 108.0 mg/kg/injection, schedule: Q08DX003 (sc), vehicle: saline, higher = longer survival); 154 % of control (endpoint: median survival time, dose: 108.0 mg/kg/injection, schedule: Q14DX002 (ip), vehicle: saline, higher = longer survival); 151 % of control (endpoint: median survival time, dose: 144.0 mg/kg/injection, schedule: Q01DX001 (sc), vehicle: saline, higher = longer survival); 68 % of control (endpoint: median survival time, dose: 180.0 mg/kg/injection, schedule: Q08DX003 (ip), vehicle: saline, higher = longer survival); 100 % of control and 103 % of control (endpoint: median survival time, dose: 180.0 mg/kg/injection, schedule: Q08DX003 (sc), vehicle: saline, higher = longer survival). Besides, the T/C (endpoint: median survival time, dose: 180.0 mg/kg/injection, schedule: Q14DX002 (ip), vehicle: saline, higher = longer survival) was 113 % of control; the T/C (endpoint: median survival time, dose: 200.0 mg/kg/injection, schedule: Q01DX001 (ip), vehicle: methylcellulose (MC), higher = longer survival) is 39 % of control; the T/C (endpoint: median survival time, dose: 200.0 mg/kg/injection, schedule: Q03DX010 (ip), vehicle: saline, higher = longer survival) was 30 % of control; the T/C (endpoint: median survival time, dose: 200.0 mg/kg/injection, schedule: Q14DX002 (ip), vehicle: saline, higher = longer survival) is 122 % of control; the T/C (endpoint: median survival time, dose: 240.0 mg/kg/injection, schedule: Q01DX001 (sc), vehicle: saline, higher = longer survival) was 174 % of control and 180 % of control; the T/C (endpoint: median survival time, dose: 300.0 mg/kg/injection, schedule: Q01DX001 (ip), vehicle: saline, higher = longer survival) was 63 % of control. Also, the T/C is, setting by setting: (endpoint: median survival time, dose: 300.0 mg/kg/injection, schedule: Q01DX001 (sc), vehicle: saline, higher = longer survival) 160 % of control; (endpoint: median survival time, dose: 300.0 mg/kg/injection, schedule: Q08DX003 (ip), vehicle: saline, higher = longer survival) 57 % of control; (endpoint: median survival time, dose: 400.0 mg/kg/injection, schedule: Q01DX001 (ip), vehicle: methylcellulose (MC), higher = longer survival) 22 % of control; (endpoint: median survival time, dose: 400.0 mg/kg/injection, schedule: Q01DX001 (ip), vehicle: saline, higher = longer survival) 60 % of control; (endpoint: median survival time, dose: 400.0 mg/kg/injection, schedule: Q01DX001 (sc), vehicle: saline, higher = longer survival) 49 % of control; (endpoint: median survival time, dose: 460.0 mg/kg/injection, schedule: Q01DX001 (ip), vehicle: saline, higher = longer survival) 18 % of control. In addition, the T/C (endpoint: median tumor weight (est.), dose: 65.0 mg/kg/injection, schedule: Q01DX001 (ip), vehicle: saline, higher = larger tumour) is 27 % of control.

As for `CN(C)C(=S)S`, the T/C by setting is: (endpoint: mean tumor weight, dose: 125.0 mg/kg/injection, schedule: Q01DX011 (ip), vehicle: saline, higher = larger tumour) 58 % of control and 59 % of control; (endpoint: mean tumor weight, dose: 250.0 mg/kg/injection, schedule: Q01DX011 (ip), vehicle: saline, higher = larger tumour) 57 % of control; (endpoint: median survival time, dose: 125.0 mg/kg/injection, schedule: Q01DX011 (ip), vehicle: saline, higher = longer survival) 102 % of control.

For the molecule `CCN(CC)CCNc1ccc(CO)c2sc3ccccc3c(=O)c12`, the T/C was 110 % of control (endpoint: mean tumor weight (est.), dose: 18.75 mg/kg/injection, schedule: Q01DX011 (ip), vehicle: saline, higher = larger tumour); 56 % of control (endpoint: mean tumor weight (est.), dose: 37.5 mg/kg/injection, schedule: Q01DX011 (ip), vehicle: saline, higher = larger tumour); 19 % of control (endpoint: mean tumor weight (est.), dose: 75.0 mg/kg/injection, schedule: Q01DX011 (ip), vehicle: saline, higher = larger tumour); 105 % of control (endpoint: median survival time, dose: 18.75 mg/kg/injection, schedule: Q01DX011 (ip), vehicle: saline, higher = longer survival); 107 % of control (endpoint: median survival time, dose: 37.5 mg/kg/injection, schedule: Q01DX011 (ip), vehicle: saline, higher = longer survival); 113 % of control (endpoint: median survival time, dose: 75.0 mg/kg/injection, schedule: Q01DX011 (ip), vehicle: saline, higher = longer survival).

`COc1c(C)c2c(c(O)c1C/C=C(\C)CCC(=O)O)C(=O)OC2`: the T/C by setting is: (endpoint: mean tumor weight (est.), dose: 25.0 mg/kg/injection, schedule: Q01DX011 (ip), vehicle: saline with Tween-80, higher = larger tumour) 98 % of control; (endpoint: mean tumor weight (est.), dose: 50.0 mg/kg/injection, schedule: Q01DX011 (ip), vehicle: saline with Tween-80, higher = larger tumour) 71 % of control; (endpoint: mean tumor weight (est.), dose: 100.0 mg/kg/injection, schedule: Q01DX011 (ip), vehicle: saline with Tween-80, higher = larger tumour) 57 % of control; (endpoint: mean tumor weight (est.), dose: 200.0 mg/kg/injection, schedule: Q01DX011 (ip), vehicle: saline with Tween-80, higher = larger tumour) 27 % of control; (endpoint: median survival time, dose: 25.0 mg/kg/injection, schedule: Q01DX011 (ip), vehicle: saline with Tween-80, higher = longer survival) 97 % of control; (endpoint: median survival time, dose: 50.0 mg/kg/injection, schedule: Q01DX011 (ip), vehicle: saline with Tween-80, higher = longer survival) 106 % of control. Further, the T/C (endpoint: median survival time, dose: 100.0 mg/kg/injection, schedule: Q01DX011 (ip), vehicle: saline with Tween-80, higher = longer survival) is 100 % of control.

On to `COc1cccc2c1C(=O)c1c(O)c3c(c(O)c1C2=O)C[C@@](O)(C(=O)COC(=O)Cc1cccc2ccccc12)C[C@@H]3OC1CC(N)C(O)C(C)O1` (some centres undefined), for which the T/C by setting is: (endpoint: median survival time, dose: 0.25 mg/kg/injection, schedule: Q01DX011 (ip), vehicle: other, higher = longer survival) 124 % of control; (endpoint: median survival time, dose: 0.5 mg/kg/injection, schedule: Q01DX011 (ip), vehicle: other, higher = longer survival) 108 % of control; (endpoint: median survival time, dose: 1.0 mg/kg/injection, schedule: Q01DX011 (ip), vehicle: other, higher = longer survival) 113 % of control.

For `[N-]=[N+]=CC(=O)CCC(N)C(=O)O` (centres undefined), the T/C is 107 % of control (endpoint: mean tumor weight, dose: 7.5 micrograms/kg/injection, schedule: Q01DX011 (ip), vehicle: saline, higher = larger tumour); 77 % of control (endpoint: mean tumor weight, dose: 15.0 micrograms/kg/injection, schedule: Q01DX011 (ip), vehicle: saline, higher = larger tumour); 75 % of control (endpoint: mean tumor weight, dose: 30.0 micrograms/kg/injection, schedule: Q01DX011 (ip), vehicle: saline, higher = larger tumour); 102 % of control (endpoint: mean tumor weight, dose: 60.0 micrograms/kg/injection, schedule: Q01DX011 (ip), vehicle: saline, higher = larger tumour); 114 % of control (endpoint: median survival time, dose: 7.5 micrograms/kg/injection, schedule: Q01DX011 (ip), vehicle: saline, higher = longer survival); 90 % of control (endpoint: median survival time, dose: 30.0 micrograms/kg/injection, schedule: Q01DX011 (ip), vehicle: saline, higher = longer survival). Besides, the T/C (endpoint: median survival time, dose: 60.0 micrograms/kg/injection, schedule: Q01DX011 (ip), vehicle: saline, higher = longer survival) is 90 % of control.
